Broadly, the Km is the substrate concentration at which the rate is half of its maximum.

Data on one molecule can be found in PMC4282169 (Nature, 2014).

This test addresses T1, BoGH5A (Bacteroides ovatus, UniProt A7LXT7).
T1 sequence (A7LXT7 34-502 limits assumed): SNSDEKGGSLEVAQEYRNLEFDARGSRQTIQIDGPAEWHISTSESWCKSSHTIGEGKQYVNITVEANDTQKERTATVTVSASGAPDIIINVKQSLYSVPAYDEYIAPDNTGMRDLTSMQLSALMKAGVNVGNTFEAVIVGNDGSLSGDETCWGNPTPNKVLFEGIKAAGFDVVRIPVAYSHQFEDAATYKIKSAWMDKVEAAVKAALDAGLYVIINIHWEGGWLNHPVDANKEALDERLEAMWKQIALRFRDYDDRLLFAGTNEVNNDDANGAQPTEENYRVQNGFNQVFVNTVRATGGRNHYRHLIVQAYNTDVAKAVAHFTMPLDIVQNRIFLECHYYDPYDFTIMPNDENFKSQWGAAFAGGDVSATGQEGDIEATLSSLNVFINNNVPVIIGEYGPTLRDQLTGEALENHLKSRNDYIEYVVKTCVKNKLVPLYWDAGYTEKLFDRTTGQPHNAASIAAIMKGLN
Description: 2-chloro-4-nitrophenolate release, A405, continuous. Conditions: read-out: Km (mM) ^‡; 37 °C, 50 mM buffer at or near pH optimum (6.0-7.0). The test is classed as biochemical.

As for `O=[N+]([O-])c1ccc(O[C@@H]2O[C@H](CO)[C@@H](O[C@@H]3O[C@H](CO[C@H]4OC[C@@H](O)[C@H](O)[C@H]4O[C@@H]4O[C@H](CO)[C@H](O)[C@H](O)[C@H]4O)[C@@H](O[C@@H]4O[C@H](CO[C@H]5OC[C@@H](O)[C@H](O)[C@H]5O[C@@H]5O[C@H](CO)[C@H](O)[C@H](O)[C@H]5O)[C@@H](O[C@@H]5O[C@H](CO[C@H]6OC[C@@H](O)[C@H](O)[C@H]6O)[C@@H](O)[C@H](O)[C@H]5O)[C@H](O)[C@H]4O)[C@H](O)[C@H]3O)[C@H](O)[C@H]2O)c(Cl)c1` [XLLG-β-CNP], the Km was 0.145 ± 0.024 mM.
